Measurements as given in BigSolDB 2.1.
“And” between values parts separate entries of the source, which are not always exact repeats. Identical values can stand only once.

`CC(C)(C)C(O)/C(=C\c1ccc(Cl)cc1)n1cncn1` (stereo not drawn) showed a solubility (mole fraction) (in ethyl acetate, 278.15 K) of 0.0106, a solubility (mole fraction) (in ethyl acetate, 283.15 K) of 0.0112 and a solubility (mole fraction) (in ethyl acetate, 288.15 K) of 0.016. For the same molecule, the solubility (mole fraction) (in ethyl acetate, 293.15 K) was 0.0167, the solubility (mole fraction) (in ethyl acetate, 298.15 K) was 0.0187 and the solubility (mole fraction) (in ethyl acetate, 303.15 K) was 0.0201. It also gave a solubility (mole fraction) (in ethyl acetate, 308.15 K) of 0.0253, a solubility (mole fraction) (in ethyl acetate, 313.15 K) of 0.028 and a solubility (mole fraction) (in ethyl acetate, 318.15 K) of 0.035. For the same molecule, the solubility (mole fraction) (in ethyl acetate, 323.15 K) was 0.0536, the solubility (mole fraction) (in ethylene glycol, 278.15 K) was 0.000907 and the solubility (mole fraction) (in ethylene glycol, 283.15 K) was 0.000983. It also gave a solubility (mole fraction) (in ethylene glycol, 288.15 K) of 0.00103, a solubility (mole fraction) (in ethylene glycol, 293.15 K) of 0.00118 and a solubility (mole fraction) (in ethylene glycol, 298.15 K) of 0.00128. It also gave a solubility (mole fraction) (in ethylene glycol, 303.15 K) of 0.00166, a solubility (mole fraction) (in ethylene glycol, 308.15 K) of 0.0018 and a solubility (mole fraction) (in ethylene glycol, 313.15 K) of 0.00202. The solubility (mole fraction) (in ethylene glycol, 318.15 K) was 0.00248, the solubility (mole fraction) (in ethylene glycol, 323.15 K) was 0.0025 and the solubility (mole fraction) (in isobutanol, 278.15 K) was 0.0157. For the same molecule, the solubility (mole fraction) (in isobutanol, 283.15 K) was 0.0177, the solubility (mole fraction) (in isobutanol, 288.15 K) was 0.0185 and the solubility (mole fraction) (in isobutanol, 293.15 K) was 0.0197. The solubility (mole fraction) (in isobutanol, 298.15 K) was 0.0225, the solubility (mole fraction) (in isobutanol, 303.15 K) was 0.0257 and the solubility (mole fraction) (in isobutanol, 308.15 K) was 0.0261. For the same molecule, the solubility (mole fraction) (in isobutanol, 313.15 K) was 0.0365, the solubility (mole fraction) (in isobutanol, 318.15 K) was 0.0425 and the solubility (mole fraction) (in isobutanol, 323.15 K) was 0.0566. For the same molecule, the solubility (mole fraction) (in isobutyl acetate, 278.15 K) was 0.00727, the solubility (mole fraction) (in isobutyl acetate, 283.15 K) was 0.0102 and the solubility (mole fraction) (in isobutyl acetate, 288.15 K) was 0.0116. The solubility (mole fraction) (in isobutyl acetate, 293.15 K) was 0.0136, the solubility (mole fraction) (in isobutyl acetate, 298.15 K) was 0.0159 and the solubility (mole fraction) (in isobutyl acetate, 303.15 K) was 0.0199. For the same molecule, the solubility (mole fraction) (in isobutyl acetate, 308.15 K) was 0.0219, the solubility (mole fraction) (in isobutyl acetate, 313.15 K) was 0.0263 and the solubility (mole fraction) (in isobutyl acetate, 318.15 K) was 0.0335. The solubility (mole fraction) (in isobutyl acetate, 323.15 K) was 0.0423, the solubility (mole fraction) (in isopropanol, 278.15 K) was 0.0112 and the solubility (mole fraction) (in isopropanol, 283.15 K) was 0.0122. For the same molecule, the solubility (mole fraction) (in isopropanol, 288.15 K) was 0.0141, the solubility (mole fraction) (in isopropanol, 293.15 K) was 0.0157 and the solubility (mole fraction) (in isopropanol, 298.15 K) was 0.0189. It also gave a solubility (mole fraction) (in isopropanol, 303.15 K) of 0.0248, a solubility (mole fraction) (in isopropanol, 308.15 K) of 0.0268 and a solubility (mole fraction) (in isopropanol, 313.15 K) of 0.0326. For the same molecule, the solubility (mole fraction) (in isopropanol, 318.15 K) was 0.038, the solubility (mole fraction) (in isopropanol, 323.15 K) was 0.047 and the solubility (mole fraction) (in methyl acetate, 278.15 K) was 0.0084. It also gave a solubility (mole fraction) (in methyl acetate, 283.15 K) of 0.00938, a solubility (mole fraction) (in methyl acetate, 288.15 K) of 0.0116 and a solubility (mole fraction) (in methyl acetate, 293.15 K) of 0.0137. For the same molecule, the solubility (mole fraction) (in methyl acetate, 298.15 K) was 0.0151, the solubility (mole fraction) (in methyl acetate, 303.15 K) was 0.0184 and the solubility (mole fraction) (in methyl acetate, 308.15 K) was 0.0214. For the same molecule, the solubility (mole fraction) (in methyl acetate, 313.15 K) was 0.0236, the solubility (mole fraction) (in methyl acetate, 318.15 K) was 0.0318 and the solubility (mole fraction) (in methyl acetate, 323.15 K) was 0.0383. The solubility (mole fraction) (in n-butanol, 278.15 K) was 0.015, the solubility (mole fraction) (in n-butanol, 283.15 K) was 0.0171 and the solubility (mole fraction) (in n-butanol, 288.15 K) was 0.0196. The solubility (mole fraction) (in n-butanol, 293.15 K) was 0.0221, the solubility (mole fraction) (in n-butanol, 298.15 K) was 0.0249 and the solubility (mole fraction) (in n-butanol, 303.15 K) was 0.0309. For the same molecule, the solubility (mole fraction) (in n-butanol, 308.15 K) was 0.0355, the solubility (mole fraction) (in n-butanol, 313.15 K) was 0.0406 and the solubility (mole fraction) (in n-butanol, 318.15 K) was 0.0475. It also gave a solubility (mole fraction) (in n-butanol, 323.15 K) of 0.0623, a solubility (mole fraction) (in n-butyl acetate, 278.15 K) of 0.0118 and a solubility (mole fraction) (in n-butyl acetate, 283.15 K) of 0.0131. For the same molecule, the solubility (mole fraction) (in n-butyl acetate, 288.15 K) was 0.0153, the solubility (mole fraction) (in n-butyl acetate, 293.15 K) was 0.0182 and the solubility (mole fraction) (in n-butyl acetate, 298.15 K) was 0.0204. The solubility (mole fraction) (in n-butyl acetate, 303.15 K) was 0.0247, the solubility (mole fraction) (in n-butyl acetate, 308.15 K) was 0.0291 and the solubility (mole fraction) (in n-butyl acetate, 313.15 K) was 0.0332. For the same molecule, the solubility (mole fraction) (in n-butyl acetate, 318.15 K) was 0.0364, the solubility (mole fraction) (in n-butyl acetate, 323.15 K) was 0.0527 and the solubility (mole fraction) (in n-octanol, 278.15 K) was 0.0159. It also gave a solubility (mole fraction) (in n-octanol, 283.15 K) of 0.0177, a solubility (mole fraction) (in n-octanol, 288.15 K) of 0.02 and a solubility (mole fraction) (in n-octanol, 293.15 K) of 0.0225. It also gave a solubility (mole fraction) (in n-octanol, 298.15 K) of 0.0238, a solubility (mole fraction) (in n-octanol, 303.15 K) of 0.0255 and a solubility (mole fraction) (in n-octanol, 308.15 K) of 0.0287. The solubility (mole fraction) (in n-octanol, 313.15 K) was 0.0369, the solubility (mole fraction) (in n-octanol, 318.15 K) was 0.044 and the solubility (mole fraction) (in n-octanol, 323.15 K) was 0.0511. The solubility (mole fraction) (in n-propanol, 278.15 K) was 0.0143, the solubility (mole fraction) (in n-propanol, 283.15 K) was 0.0163 and the solubility (mole fraction) (in n-propanol, 288.15 K) was 0.0196. It also gave a solubility (mole fraction) (in n-propanol, 293.15 K) of 0.0218, a solubility (mole fraction) (in n-propanol, 298.15 K) of 0.0231 and a solubility (mole fraction) (in n-propanol, 303.15 K) of 0.0263. For the same molecule, the solubility (mole fraction) (in n-propanol, 308.15 K) was 0.0273, the solubility (mole fraction) (in n-propanol, 313.15 K) was 0.0332 and the solubility (mole fraction) (in n-propanol, 318.15 K) was 0.0441. For the same molecule, the solubility (mole fraction) (in n-propanol, 323.15 K) was 0.0497, the solubility (mole fraction) (in n-propyl acetate, 278.15 K) was 0.0114 and the solubility (mole fraction) (in n-propyl acetate, 283.15 K) was 0.0123. The solubility (mole fraction) (in n-propyl acetate, 288.15 K) was 0.0147, the solubility (mole fraction) (in n-propyl acetate, 293.15 K) was 0.0169 and the solubility (mole fraction) (in n-propyl acetate, 298.15 K) was 0.0269. It also gave a solubility (mole fraction) (in n-propyl acetate, 303.15 K) of 0.0277, a solubility (mole fraction) (in n-propyl acetate, 308.15 K) of 0.0362 and a solubility (mole fraction) (in n-propyl acetate, 313.15 K) of 0.037. It also gave a solubility (mole fraction) (in n-propyl acetate, 318.15 K) of 0.052, a solubility (mole fraction) (in n-propyl acetate, 323.15 K) of 0.0556 and a solubility (mole fraction) (in propylene glycol, 278.15 K) of 0.00332. It also gave a solubility (mole fraction) (in propylene glycol, 283.15 K) of 0.00359, a solubility (mole fraction) (in propylene glycol, 288.15 K) of 0.00423 and a solubility (mole fraction) (in propylene glycol, 293.15 K) of 0.00483. The solubility (mole fraction) (in propylene glycol, 298.15 K) was 0.00737, the solubility (mole fraction) (in propylene glycol, 303.15 K) was 0.00749 and the solubility (mole fraction) (in propylene glycol, 308.15 K) was 0.00874. The solubility (mole fraction) (in propylene glycol, 313.15 K) was 0.0101, the solubility (mole fraction) (in propylene glycol, 318.15 K) was 0.0139 and the solubility (mole fraction) (in propylene glycol, 323.15 K) was 0.0174. For the same molecule, the solubility (mole fraction) (in water, 278.15 K) was 2.2e-06 and 3.2e-06, the solubility (mole fraction) (in water, 283.15 K) was 2.3e-06 and 3.6e-06 and the solubility (mole fraction) (in water, 288.15 K) was 2.4e-06. It also gave a solubility (mole fraction) (in water, 293.15 K) of 2.6e-06, a solubility (mole fraction) (in water, 298.15 K) of 2.7e-06 and a solubility (mole fraction) (in water, 303.15 K) of 2.8e-06. The solubility (mole fraction) (in water, 308.15 K) was 3e-06 and the solubility (mole fraction) (in water, 323.15 K) was 4.2e-06.
